Results published in patent US9433645B2, “Method and composition for preventing stem cell disruption and aggregation” (R BIO CO., LTD., priority 2012, dated 2016).

What was measured:
Assay type in all cases: cell-based, human
[1] = tested on: adipose tissue-derived mesenchymal stem cells; experiment: Survival rate of stem cells suspended in normal saline containing acetylsalicylic acid; settings: for Survival rate: 1.0×10^7 cells
Procedure: After the adipose tissue-derived mesenchymal stem cells isolated in Example 1 were treated with trypsin, the trypsin treated adipose tissue-derived mesenchymal stem cells (1.0×10^7 cells) were suspended in normal saline containing acetylsalicylic acid (Sigma; A5376) at each concentration, and survival rates at 12 and 24 hours were observed. The normal saline containing acetylsalicylic acid was prepared by adding acetylsalicylic acid to normal saline at each concentration and performing sonication at 37 °C for 30 minutes.

[2] = tested on: adipose tissue-derived mesenchymal stem cells; experiment: Survival, number of cells and aggregation of stem cells suspended in normal saline containing aspirin lysine
Procedure: (§1) After the adipose tissue-derived mesenchymal stem cells isolated in Example 1 were treated with trypsin, the trypsin treated adipose tissue-derived mesenchymal stem cells (1.0×10^6 cells) were suspended in normal saline containing aspirin lysine (Shinpoong) at each concentration and cultured for 5 days, and the number of cells was measured. Then, after cold-temperature storage for 24 hours, FACS was measured, thereby confirming characteristics of the cells.

[3] = tested on: adipose tissue-derived mesenchymal stem cells; experiment: FACS characteristics (marker expression rate) of stem cells after suspension in normal saline containing aspirin lysine
Procedure: as §1

[4] = FACS, aspirin 0.1 mg/10 ml, after cold-temperature storage for 24 hours

CC(=O)Oc1ccccc1C(=O)O [acetylsalicylic acid]
Survival rate ([1]; 12 hours, aspirin 1 mg/10 ml normal saline): 50%
Survival rate ([1]; 12 hours, aspirin 2 mg/10 ml normal saline): 20%
Survival rate ([1]; 12 hours, aspirin 5 mg/10 ml normal saline): 10%
Survival rate ([1]; 24 hours, aspirin 1 mg/10 ml normal saline): 10%
Survival rate ([1]; 24 hours, aspirin 2 mg/10 ml normal saline): 10%
Survival rate ([1]; 24 hours, aspirin 5 mg/10 ml normal saline): 5%
Cytotoxic effect ([1]; aspirin added to 10 ml of normal saline 1.0 mg or more): a cytotoxic effect was exhibited

CC(=O)Oc1ccccc1C(=O)O [aspirin lysine]
Change in the number of cells ([2]; after culturing for 5 days): almost no change in the number of cells
Cell survival rate depending on the concentration ([2]; normal saline containing aspirin lysine at each concentration): slightly decreased, but the decrease was not significant
Aggregation on storage ([2]; storing the stem cells in normal saline containing aspirin): aggregation may be prevented without causing changes in the characteristics of cells
Expression rate CD29 [3, 4]: 99.97%
Expression rate CD31 [3, 4]: 0.21%
Expression rate CD44 [3, 4]: 99.25%
Expression rate CD45 [3, 4]: 0.17%
Characteristics of the stem cells (FACS) ([3]; stored at a cold temperature for 24 hours after suspension in normal saline containing aspirin for 24 hours): no influence of the concentration of aspirin
